Test results published in patent EP4361136A1, “COMPOUND FOR THE TREATMENT OF GLIOBLASTOMA” (Universidad De Córdoba, priority 2021, dated 2022).

Legend:
glioblastoma (GBM) cells = test: In vitro functional assays in glioblastoma cells (proliferation, migration, tumoursphere formation, VEGF secretion, apoptosis, marker expression); type: cell-based, human
Protocol: The proliferation assay (see below) was used to develop a dose-response and IC50 determination of pladienolide-b in glioblastoma cells. The selected doses of pladienolide-b, based on previously reported in vitro studies, were 10^-9 , 10^-7 and 10^-5 M measured 48 h after administration of the SF3B1 inhibitor in glioblastoma cell lines and patient-derived primary glioblastoma cell culture. Least squares regression was used as a method of adjustment to the IC50 determination.
As described above, cell proliferation and migration in response to pladienolide-b treatment were analyzed using the alamar blue assay (3,000 cells/well for cell lines and 10,000 cells/well for primary cell cultures; Biosource International, # BUF012B) and the wound healing technique (150,000 U-118 MG cells/well), respectively. For the migration assay, U-118 MG cells cultured at confluence were serum deprived for 24 h to achieve cell synchronization and then wounded with a sterile 200 µl pipette tip. Wells were replaced and cells were incubated for 6 h and 24 h with medium supplemented without FBS. Wound healing was compared to the area immediately after wounding. […]
The VEGF human ELISA kit (ThermoFisher Scientific, no. KHG0112) was used to quantify VEGF secretion in response to pladienolide-b in glioblastoma cell lines, following the manufacturer's instructions. […]

U-87 MG cells = test: Preclinical xenograft GBM mouse model, intratumoral injection; type: in vivo, mice
Protocol: A preclinical xenograft mouse model was developed to test pladienolide-b in vivo. Five-week-old ATHYMFoxn1nu/nu mice (n = 6; Janvier-Labs) were subcutaneously injected with 3×10^6 of U-87 MG cells in both flanks [in 100 µl of basal membrane extract (Trevigen, # 3432-010-01)]. Once the tumour was clearly measurable (10 days after cell inoculation), each mouse received an intratumour injection with 50 µl of pladienolide-b (10^-7 M) in one flank and vehicle (1x DPBS, Sigma-Aldrich, # D1408) used as a control in another flank. Tumour growth was monitored every 2 days using a digital caliper. 20 days after injection, mice were sacrificed and each tumour was dissected, fixed, and sectioned for histopathological examination after staining with haematoxylin and eosin. Examination of the number of mitoses, vascular proliferation and necrosis was performed by experienced pathologists. Additional tumour pieces were in liquid nitrogen until RNA extraction using Trizol reagent and protein extraction using SDS-DTT buffer, as previously reported. One individual was assessed by micro-CT imaging using SkyScan1176 Bruker and a software environment to show the location of the tumour in vivo prior to dissection. 2D analysis along with 3D image rendering was performed using VolView 3.4 software (KitWare Inc). […]

Structure (SMILES): CC[C@H](O)[C@@H](C)[C@H]1O[C@@H]1C[C@H](C)/C=C/C=C(\C)[C@H]1OC(=O)C[C@H](O)CC[C@@](C)(O)[C@@H](OC(C)=O)/C=C/[C@@H]1C [pladienolide-b, [(2 S, 3 S, 4 E , 6 S , 7 R , 10 R ) -7,10-dihydroxy-2 - [(2 E , 4 E, 6 S ) -7 - [(2 R , 3 R ) -3 - [(2 R , 3 S ) -3-hydroxypentan-2-yl]oxiran-2-yl] -6-methylhepta-2,4-dien-2-yl] -3,7-dimethyl-12-oxo-1-oxazacyclododec-4-en-6-yl] acetate]
- critical functional parameters of aggressiveness and key markers of tumour development/progression/aggressiveness (glioblastoma (GBM) cells; 10^-7 M, compared to control conditions, U-87 MG, U-118 MG and patient-derived primary GBM cells): decreases
- several functional parameters in vitro (glioblastoma (GBM) cells; summary statement (Figure 4)): reduced
- glioblastoma (GBM) progression and vascularization (U-87 MG cells; U-87 MG xenograft, intratumour injection of 50 µl (10^-7 M) versus vehicle-treated flank): alters
- several functional parameters in vivo (U-87 MG cells; in vivo, summary statement (Figure 5)): reduced
